Measured values reported in patent US11793779B2, “Hica for use in prophylaxis and/or treatment of a disease or condition involving degradation of cartilage and/or disruption of cartilage homeostasis and/or integrity” (Salarusta Oy, priority 2020, dated 2023).

Tests used:
Format in all cases: biochemical
[1] = target: T1, Human recombinant pure MMP-8 (Homo sapiens, UniProt P22894); assay: MMP-8 mediated DEL-1 fragmentation (SDS-PAGE, silver stain); details: for inhibition of MMP-8 mediated DEL-1 fragmentation: Study A, 4 μl of 10% isomer, overnight at 37° C., FIG. 3A
T1 construct: purchased Proteaimmun 30100702
T1 sequence (P22894 101-467): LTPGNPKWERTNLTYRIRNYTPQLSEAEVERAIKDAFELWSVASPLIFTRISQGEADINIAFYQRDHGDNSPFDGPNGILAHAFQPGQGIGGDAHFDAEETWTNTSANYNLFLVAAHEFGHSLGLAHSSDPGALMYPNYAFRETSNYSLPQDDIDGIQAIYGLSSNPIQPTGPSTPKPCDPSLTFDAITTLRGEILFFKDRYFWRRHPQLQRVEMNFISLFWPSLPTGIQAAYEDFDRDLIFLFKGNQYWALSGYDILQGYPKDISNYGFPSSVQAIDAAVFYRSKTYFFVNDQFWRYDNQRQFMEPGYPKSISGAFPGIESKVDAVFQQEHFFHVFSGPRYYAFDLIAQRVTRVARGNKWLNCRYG
Experimental: The degradation of DEL-1 by MMP-8 was determined similarly as described (DeCarlo 1994, Sorsa, Salo et al. 1997). Human recombinant pure MMP-8 (#30100702, Proteaimmun) was preincubated 1 hour at 37° C. with p-aminophenylmercuric acetate (APMA) and different HICA isomers (D-HICA, #CAS 20312-37-2, Santa Cruz Biotechnology; L-HICA, #219827 Sigma-Aldrich). After which DEL-1 was added as a substrate. That was let incubate overnight at +37° C. Analyzed on […] SDS-PAGE with Silver Stain Pierce®. α-hydroxy-isovaleric acid (HMB). Ilomastat (Ilo). As assay buffer 50 mM Tris-HCl-buffer (TNC): pH 7.5; 0.2 M NaCl; 1.0 mM CaCl2 (Tervahartiala, Ingman et al. 1995). Fragmentation of DEL-1 induced by MMP-8 treated with 1 mM APMA was regarded as 100%. (Sorsa, Salo et al. 1997).
Study A: • 1. 1.7 μl DEL-1 (0.2 μg/μl) • 2. 1 μl MMP-8 (0.1 μg/μl)+5 μl 2 mM APMA+4 μl TNC • 3. 1.7 μl DEL-1 (0.2 μg/μl)+1 μl MMP-8 (0.1 μg/μl)+5 μl 2 mM APMA+4 μl TNC • 4.,5. 1.7 μl DEL-1 (0.2 μg/μl)+1 μl MMP-8 (0.1 μg/μl)+5 μl 2 mM APMA+10% 4 μl D-HICA • 6.,7. 1.7 μl DEL-1 (0.2 μg/μl)+1 μl MMP-8 (0.1 μg/μl)+5 μl 2 mM APMA+10% 4 μl L-HICA • 8.,9. 1.7 μl DEL-1 (0.2 μg/μl)+1 μl MMP-8 (0.1 μg/μl)+5 μl 2 mM APMA+10% 4 μl D-HMB • 10.,11. 1.7 μl DEL-1 (0.2 μg/μl)+1 μl MMP-8 (0.1 μg/μl)+5 μl 2 mM APMA+10% 4 μl L-HMB • 12.,13. 1.7 μl DEL-1 (0.2 μg/μl)+1 μl MMP-8 (0.1 μg/μl)+5 μl 2 mM APMA+4 μl Ilo
Study B: • 1. 1.7 μl DEL-1 (0.2 μg/μl) • 2. 1 μl MMP-8 (0.1 μg/μl)+5 μl 2 mM APMA+4 μl TNC • 3.,4. 1.7 μl DEL-1 (0.2 μg/μl)+1 μl MMP-8 (0.1 μg/μl)+5 μl 2 mM APMA+4 μl TNC • 6.,7. 1.7 μl DEL-1 (0.2 μg/μl)+1 μl MMP-8 (0.1 μg/μl)+7 μl 1.4 mM APMA+2 μl 10% D-HICA • 8.,9.,10. 1.7 μl DEL-1 (0.2 μg/μl)+1 μl MMP-8 (0.1 μg/μl)+5 μl 2 mM APMA+4 μl 10% D-HICA • 11.,12.,13. 1.7 μl DEL-1 (0.2 μg/μl)+1 μl MMP-8 (0.1 μg/μl)+1 μl 10 mM APMA+8 μl 10% D-HICA • 14. 1.7 μl DEL-1 (0.2 μg/μl)+1 μl MMP-8 (0.1 μg/μl)+5 μl 2 mM APMA+4 μl Ilo

[2] = target: T2, recombinant human ADAMTS-5 (Homo sapiens, UniProt Q9UNA0); assay: ADAMTS-5 mediated break down of aggrecan (SDS-PAGE, silver stain); details: 10% racemic HICA, pH 7.4, incubation 2 d, FIG. 1 line 5
T2 construct: purchased Chemicon International Inc. CC1034
T2 sequence (Q9UNA0 262-930): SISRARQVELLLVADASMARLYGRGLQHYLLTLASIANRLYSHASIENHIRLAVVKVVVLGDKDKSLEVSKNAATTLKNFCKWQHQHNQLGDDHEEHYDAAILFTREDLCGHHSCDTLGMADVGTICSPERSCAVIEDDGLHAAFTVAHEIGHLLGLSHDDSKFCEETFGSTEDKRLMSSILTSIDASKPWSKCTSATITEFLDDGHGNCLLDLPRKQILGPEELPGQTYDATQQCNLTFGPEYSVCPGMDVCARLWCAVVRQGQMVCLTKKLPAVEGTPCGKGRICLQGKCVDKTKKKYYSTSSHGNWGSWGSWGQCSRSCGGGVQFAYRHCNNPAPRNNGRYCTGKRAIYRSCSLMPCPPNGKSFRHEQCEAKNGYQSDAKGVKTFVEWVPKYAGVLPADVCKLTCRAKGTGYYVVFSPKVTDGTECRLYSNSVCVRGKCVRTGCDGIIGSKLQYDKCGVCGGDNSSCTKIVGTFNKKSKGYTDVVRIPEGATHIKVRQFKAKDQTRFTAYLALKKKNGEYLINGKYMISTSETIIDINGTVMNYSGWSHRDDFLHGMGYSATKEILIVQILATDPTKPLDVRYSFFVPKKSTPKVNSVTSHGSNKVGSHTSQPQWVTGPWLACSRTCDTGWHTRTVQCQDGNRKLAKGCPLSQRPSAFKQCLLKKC
Experimental: (§1) As positive inhibitor controls Ilomastat (Ilo, CC1010, Millipore) and chlorhexidine (CHX, Corsodyl®, [2 mg/ml] (GlaxoSmithKline, Brøndby, Denmark) were used and 50 mM Tris-HCl-buffer (TNC): pH 7.5; 0.2 M NaCl; 1.0 mM CaCl2) was used as neutral assay buffer.
(§2) MMP-13 was preincubated 1 hour at 37° C. with p-aminophenylmercuric acetate (APMA, A9563, Sigma-Aldrich) to optimally activate (pro)MMP-13. As substrate, Aggrecan was added and then ADAMTS-5 or activated MMP-13 as catalytic/proteolytic enzyme and TNC, as neutral control, and 10% HICA, CHX or Ilo as protease/MMP-inhibitors let incubated together from 1 hour (h) to 2 days (d). The enzyme reactions terminated by boiling with modified Laemmli buffer. The samples were analysed by 8% SDS-PAGE and after electrophoresis the defragmentation of Aggrecan was visualised using Silver Stain Pierce®.
(§3) Sample with concentrations in lines: • 1. 0.25 μl molecular weight standards. Bio-Rad • 2. 4.2 μl Aggrecan (0.5 μg/μl) • 3. 4 μl ADAMTS-5 (0.1 μg/μl) • 4. 4.2 μl Aggrecan+4 μl ADAMTS-5+6 μl TNC-buffer. inc: 2d • 5. 4.2 μl Aggrecan+4 μl ADAMTS-5+6 μl 10% HICA. inc: 2d • 6. 4.2 μl Aggrecan+4 μl ADAMTS-5+6 μl CHX (2 mg/ml). inc: 2d • 7. 1 μl MMP-13 (0.2 μg/μl)+3 μl 2 mM APMA+6 μl TNC • 8. 4.2 μl Aggrecan+1 μl MMP-13 (0.2 μg/μl)+3 μl 2 mM APMA+6 μl TNC. inc: 1h • 9. 4.2 μl Aggrecan+1 μl MMP-13 (0.2 μg/μl)+3 μl 2 mM APMA+6 μl TNC. inc: 2d • 10. […]

[3] = target: T3, human Matrix metalloproteinase 13 (MMP-13) (Homo sapiens, UniProt P45452); assay: MMP-13 mediated break down of aggrecan (SDS-PAGE, silver stain); details: 10% racemic HICA, APMA-activated MMP-13, incubation 2 d, FIG. 1 line 11
T3 construct: purchased BioTeZ, Berlin-Buch, Berlin, Germany 30100802
Experimental: as §1, §2, §3

Structure (SMILES): CC(C)C[C@H](O)C(=O)O [L-HICA]
- inhibition of MMP-8 mediated DEL-1 fragmentation [1]: able to prevent fragmentation of DEL-1

Structure (SMILES): [H]/N=C(\N/C(=N/[H])NCCCCCCNC(=N)NC(=N)Nc1ccc(Cl)cc1)Nc1ccc(Cl)cc1 [chlorhexidine, reference compound]
- inhibition of break down of Aggrecan by ADAMTS-5 [2]: prevent enzyme activity
- inhibition of break down of Aggrecan by MMP-13 [3]: prevent enzyme activity

Structure (SMILES): CC(C)C[C@@H](O)C(=O)O [D-HICA]
- inhibition of MMP-8 mediated DEL-1 fragmentation [1]: able to prevent fragmentation of DEL-1
- dose dependence of inhibition of MMP-8 mediated DEL-1 fragmentation ([1]; Study B, 2, 4 and 8 μl of 10% D-HICA, FIG. 3B): inhibit MMP-8 dose-dependently
